Here are results for nine compounds from US20020198127A1, “Liquid cleaning compositions and their use” (Unilever Home & Personal Care USA, Division of Conopco, Inc., priority 2001, published 2002).

In the test the test system is protease enzyme. The experiment in a line: % residual activity (RA) of the protease enzyme in liquid detergent composition after storage at 37° C. It is filed as biochemical. Particulars: for Avg. RA (%): 37° C.; for protease stability versus control, in words: Examples 1-3, storage at 37° C. up to 56 days. How it is done:
All catalysts dosed at 0.1% by weight on tope of the composition except complex G. This catalyst was dosed at 0.06 weight %.
In all cases, the pH of the composition was 7.2.
The % residual activity (RA) of the protease enzyme after storage at 37° C. was measured up to 56 days for the compositions of Examples 1-4 alone (controls), for the same compositions with 0.1% by weight of the complex B added and the same compositions with only the free ligand A added on top of the formulation (on a mole equivalent basis of the amount of the ligand in 0.1% by weight of complex B).
In Examples 4-9, 11 and 12, the pH of the composition was 7.2.
In Example 10, the pH of the composition was 8.0.

On to `CC(c1ccccn1)(c1ccccn1)N(Cc1ccccn1)Cc1ccccn1.O.O.[Cl-].[Cl-].[Fe+2]` [Complex B, [Fe(MeN4py)Cl]Cl.2H20], for which the “protease stability versus control, in words” value is “improvement in stability”. Also, the “Avg. RA (%)” value (Ex. 1 composition pH 7.2, +0.1% Complex B, day 0) amounted to 100.0%. Where the note is “Ex. 1 composition pH 7.2, +0.1% Complex B, day 3”, the “Avg. RA (%)” value is 93.7%. Where the note is “Ex. 1 composition pH 7.2, +0.1% Complex B, day 7”, the “Avg. RA (%)” value was 84.1%. Moreover, the “Avg. RA (%)” value (Ex. 1 composition pH 7.2, +0.1% Complex B, day 14) is reported as 93.9%. For the same compound, the “Avg. RA (%)” value (Ex. 1 composition pH 7.2, +0.1% Complex B, day 28) came to 79.0%. Also, the “Avg. RA (%)” value (Ex. 1 composition pH 7.2, +0.1% Complex B, day 56) came out at 71.3%. The “Avg. RA (%)” value (Ex. 2 composition pH 7.2, +0.1% Complex B, day 0) is 100.0%. Also, the “Avg. RA (%)” value (Ex. 2 composition pH 7.2, +0.1% Complex B, day 3) was 92.2%. Also, under “Ex. 2 composition pH 7.2, +0.1% Complex B, day 7”, the “Avg. RA (%)” value is 87.1%. Moreover, the “Avg. RA (%)” value (Ex. 2 composition pH 7.2, +0.1% Complex B, day 14) worked out at 80.4%. Moreover, where the note is “Ex. 2 composition pH 7.2, +0.1% Complex B, day 28”, the “Avg. RA (%)” value came to 89.7%. For the same compound, for the setting “Ex. 2 composition pH 7.2, +0.1% Complex B, day 56”, the “Avg. RA (%)” value was found to be 75.4%. Also, the “Avg. RA (%)” value (Ex. 3 composition pH 7.2, +0.1% Complex B, day 0) was determined as 100.0%. Also, the “Avg. RA (%)” value (Ex. 3 composition pH 7.2, +0.1% Complex B, day 3) is 79.0%. Besides, the “Avg. RA (%)” value (Ex. 3 composition pH 7.2, +0.1% Complex B, day 7) worked out at 74.0%. Further, where the note is “Ex. 3 composition pH 7.2, +0.1% Complex B, day 14”, the “Avg. RA (%)” value was 64.9%. Also, the “Avg. RA (%)” value (Ex. 3 composition pH 7.2, +0.1% Complex B, day 28) is on record as 59.8%. The “Avg. RA (%)” value (Ex. 3 composition pH 7.2, +0.1% Complex B, day 56) stood at 48.7%. For the same compound, for the setting “Example 4 composition (with sorbitol) pH 7.2, +0.1% Complex B, day 0”, the “Avg. RA (%)” value was 100.0%. For the same compound, the “Avg. RA (%)” value (Example 4 composition (with sorbitol) pH 7.2, +0.1% Complex B, day 7) was found to be 98%. Moreover, the “Avg. RA (%)” value (Example 4 composition (with sorbitol) pH 7.2, +0.1% Complex B, day 14) was 97%. Further, the “Avg. RA (%)” value (Example 4 composition (with sorbitol) pH 7.2, +0.1% Complex B, day 28) stood at 92%. Besides, the “Avg. RA (%)” value (Example 10 composition pH 8.0, +0.1% Complex B, day 0) came to 100.0%. The “Avg. RA (%)” value (Example 10 composition pH 8.0, +0.1% Complex B, day 3) amounted to 92%. Further, the “Avg. RA (%)” value (Example 10 composition pH 8.0, +0.1% Complex B, day 7) is given as 91%. Besides, the “Avg. RA (%)” value (Example 10 composition pH 8.0, +0.1% Complex B, day 14) turned out to be 86%. Moreover, the “Avg. RA (%)” value (Example 10 composition pH 8.0, +0.1% Complex B, day 28) is recorded as 83%.
Take `[Cl-].[Cl-].[Fe+2].c1ccc(CN(Cc2ccccn2)C(c2ccccn2)c2ccccn2)nc1` [Complex C]: the “Avg. RA (%)” value worked out at 100.0% (Example 5 composition pH 7.2, +0.1% Complex C, day 0); 98% (Example 5 composition pH 7.2, +0.1% Complex C, day 7); 91% (Example 5 composition pH 7.2, +0.1% Complex C, day 14); 78% (Example 5 composition pH 7.2, +0.1% Complex C, day 28).
`F[P-](F)(F)(F)(F)F.[Cl-].[Fe+2].c1ccc(CNCCN(Cc2ccccn2)Cc2ccccn2)nc1` [Complex D, [Fe(trispicenNH)Cl]PF6]: the “Avg. RA (%)” value is reported as 100.0% (Example 6 composition pH 7.2, +0.1% Complex D, day 0); 100% (Example 6 composition pH 7.2, +0.1% Complex D, day 7); 92% (Example 6 composition pH 7.2, +0.1% Complex D, day 14); 74% (Example 6 composition pH 7.2, +0.1% Complex D, day 28).
With `CN1CCN(C)CCN(C)CC1.CN1CCN(C)CCN(C)CC1.F[P-](F)(F)(F)(F)F.F[P-](F)(F)(F)(F)F.[Mn+4].[Mn+4].[O-2].[O-2].[O-2]` [Complex E, [Mn2(1,4,7-trimethyl-1,4,7-triazacyclononane)2(μ-O)3] (PF6)2], the “Avg. RA (%)” value reads like this: (Example 7 composition pH 7.2, +0.1% Complex E, day 0) 100.0%; (Example 7 composition pH 7.2, +0.1% Complex E, day 7) 93%; (Example 7 composition pH 7.2, +0.1% Complex E, day 14) 87%; (Example 7 composition pH 7.2, +0.1% Complex E, day 28) 80%.
Consider `F[P-](F)(F)(F)(F)F.F[P-](F)(F)(F)(F)F.[Fe+2].c1ccc(CN(CCN(Cc2ccccn2)Cc2ccccn2)Cc2ccccn2)nc1` [Complex G, [Fe(tpen)] (PF6)2], for which the “Avg. RA (%)” value is listed as 100.0% (Example 8 composition pH 7.2, +0.06% Complex G, day 0); 97% (Example 8 composition pH 7.2, +0.06% Complex G, day 7); 89% (Example 8 composition pH 7.2, +0.06% Complex G, day 14); 77% (Example 8 composition pH 7.2, +0.06% Complex G, day 28).
As for `COC(=O)C12CN(Cc3ccccn3)CC(C(=O)OC)(C1=O)C(c1ccccn1)N(C)C2c1ccccn1.O.[Cl][Fe][Cl]` (stereo not drawn) [Complex H, Chloro(dimethyl 2,4-di-(2-pyridyl)-3-methyl-7-(pyridin-2-ylmethyl)-3,7-diaza-bicyclo[3.3.1]nonan-9-one-1,5-dicarboxylate)iron(II)-chloride hydrate], the “Avg. RA (%)” value reads like this: (Example 9 composition pH 7.2, +0.1% Complex H, day 0) 100.0%; (Example 9 composition pH 7.2, +0.1% Complex H, day 7) 93%; (Example 9 composition pH 7.2, +0.1% Complex H, day 14) 91%; (Example 9 composition pH 7.2, +0.1% Complex H, day 28) 88%.
Take `CN1CCCN2CCN(C)CCCN(CC1)CC2` [Complex I, 5,12-dimethyl-1,5,8,12-tetraazabicyclo[6.6.2] hexadecane]: the “Avg. RA (%)” value runs as follows: (Example 12 composition pH 7.2, +0.1% Complex I, day 0) 100.0%; (Example 12 composition pH 7.2, +0.1% Complex I, day 7) 84%; (Example 12 composition pH 7.2, +0.1% Complex I, day 14) 78%; (Example 12 composition pH 7.2, +0.1% Complex I, day 28) 67%.
As to `CC(c1ccccn1)(c1ccccn1)N(Cc1ccccn1)Cc1ccccn1` [Ligand A, N,N-bis(pyridin-2-yl-methyl)-1,1-bis(pyridin-2-yl)-1-aminoethane], the “protease stability versus control, in words” value is listed as “improvement in stability”. In addition, the “Avg. RA (%)” value (Ex. 1 composition pH 7.2, +0.1% mole equiv. Ligand A, day 0) turned out to be 100.0%. In addition, under “Ex. 1 composition pH 7.2, +0.1% mole equiv. Ligand A, day 3”, the “Avg. RA (%)” value worked out at 85.0%. Moreover, the “Avg. RA (%)” value (Ex. 1 composition pH 7.2, +0.1% mole equiv. Ligand A, day 7) came out at 63.9%. Also, the “Avg. RA (%)” value (Ex. 1 composition pH 7.2, +0.1% mole equiv. Ligand A, day 14) is given as 48.8%. Also, the “Avg. RA (%)” value (Ex. 1 composition pH 7.2, +0.1% mole equiv. Ligand A, day 28) is given as 38.0%. Besides, the “Avg. RA (%)” value (Ex. 1 composition pH 7.2, +0.1% mole equiv. Ligand A, day 56) is reported as 18.4%. Further, under “Ex. 2 composition pH 7.2, +0.1% mole equiv. Ligand A, day 0”, the “Avg. RA (%)” value turned out to be 100.0%. The “Avg. RA (%)” value (Ex. 2 composition pH 7.2, +0.1% mole equiv. Ligand A, day 3) was determined as 70.7%. Further, the “Avg. RA (%)” value (Ex. 2 composition pH 7.2, +0.1% mole equiv. Ligand A, day 7) is given as 63.1%. Where the note is “Ex. 2 composition pH 7.2, +0.1% mole equiv. Ligand A, day 14”, the “Avg. RA (%)” value was 46.9%. Moreover, under “Ex. 2 composition pH 7.2, +0.1% mole equiv. Ligand A, day 28”, the “Avg. RA (%)” value was 29.3%. The “Avg. RA (%)” value (Ex. 2 composition pH 7.2, +0.1% mole equiv. Ligand A, day 56) was found to be 13.0%. The “Avg. RA (%)” value (Ex. 3 composition pH 7.2, +0.1% mole equiv. Ligand A, day 0) is given as 100.0%. Also, where the note is “Ex. 3 composition pH 7.2, +0.1% mole equiv. Ligand A, day 3”, the “Avg. RA (%)” value worked out at 72.0%. Moreover, the “Avg. RA (%)” value (Ex. 3 composition pH 7.2, +0.1% mole equiv. Ligand A, day 7) came out at 53.0%. Further, the “Avg. RA (%)” value (Ex. 3 composition pH 7.2, +0.1% mole equiv. Ligand A, day 14) is on record as 32.3%. Besides, for the setting “Ex. 3 composition pH 7.2, +0.1% mole equiv. Ligand A, day 28”, the “Avg. RA (%)” value came out at 18.6%. For the same compound, the “Avg. RA (%)” value (Ex. 3 composition pH 7.2, +0.1% mole equiv. Ligand A, day 56) is reported as 5.2%.
With `c1ccc(CN(CCN(Cc2ccccn2)Cc2ccccn2)Cc2ccccn2)nc1` [Ligand F, N,N,N′,N′-tetrakis(pyridin-2ylmethyl)ethylenediamine], the “Avg. RA (%)” value by setting is: (Example 11 composition pH 7.2, +0.1% Ligand F, day 0) 100.0%; (Example 11 composition pH 7.2, +0.1% Ligand F, day 7) 85%; (Example 11 composition pH 7.2, +0.1% Ligand F, day 14) 76%; (Example 11 composition pH 7.2, +0.1% Ligand F, day 28) 63%.
